# Molecular target: human APJ receptor (Homo sapiens (Human), UniProt P35414)
# Assay: [35S]GTPγS binding assay on membranes from CHO cells stably expressing human APJ receptor
# Type: biochemical
# Conditions: membranes of CHO cells stably expressing human APJ receptor, read-out: Activity hAPJ SPA EC50 IP
# Method: The human APJ receptor was cloned by polymerase chain reaction and the gene encoding the receptor was subcloned in pFLAG-CMV™-3 expression vector (Sigma, Saint Louis, Mo. USA) in-house at Amgen. A GTPγS binding assay was performed on membranes prepared from CHO cells stably expressing human APJ receptor. The optimum experimental conditions for the concentrations of GDP, MgCl2, and NaCl in the assay buffer were initially determined. […] Incubation was at RT for 90 min and the microplate was read using a ViewLux™ ultra HTS Microplate Imager (PerkinElmer, Inc.). All the results presented are means of several independent experiments and analyzed by non-linear regression methods using the commercially available program Prism (GraphPad, San Diego, Calif.) providing the EC50 values detailed in Table 27.
# Sequence of human APJ receptor (P35414 whole entry): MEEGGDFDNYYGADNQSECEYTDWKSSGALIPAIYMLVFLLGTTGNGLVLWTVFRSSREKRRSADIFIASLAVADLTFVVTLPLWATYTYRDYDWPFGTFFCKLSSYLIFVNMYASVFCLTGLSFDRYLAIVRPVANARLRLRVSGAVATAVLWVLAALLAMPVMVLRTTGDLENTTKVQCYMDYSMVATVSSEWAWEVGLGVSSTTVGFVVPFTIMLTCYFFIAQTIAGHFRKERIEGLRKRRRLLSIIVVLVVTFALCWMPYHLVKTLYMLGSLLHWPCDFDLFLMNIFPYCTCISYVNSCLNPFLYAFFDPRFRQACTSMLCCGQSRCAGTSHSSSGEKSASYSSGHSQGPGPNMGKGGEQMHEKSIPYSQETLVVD
row,SMILES,EC50
1,"CCc1cc(Cn2c(NS(=O)(=O)[C@@H](C)[C@H](C)c3ncc(Cl)cn3)nnc2-c2cccc(OC)n2)on1 [Example 196.0, (2S,3R)-3-(5-chloropyrimidin-2-yl)-N-(4-((3-ethylisoxazol-5-yl)methyl)-5-(6-methoxypyridin-2-yl)-4H-1,2,4-triazol-3-yl)butane-2-sulfonamide]",4.8 nM
2,"COc1cnc([C@@H](OC)[C@H](C)S(=O)(=O)Nc2nnc(-c3cccc(OC)n3)n2[C@H]2CC23CC3)cn1 (single isomer, unassigned) [Example 160.0, (1R,2S)-1-methoxy-1-(5-methoxypyrazin-2-yl)-N-(5-(6-methoxypyridin-2-yl)-4-((S)-spiro[2.2]pentan-1-yl)-4H-1,2,4-triazol-3-yl)propane-2-sulfonamide or (1R,2S)-1-methoxy-1-(5-methoxypyrazin-2-yl)-N-(5-(6-methoxypyridin-2-yl)-4-((R)-spiro[2.2]pentan-1-yl)-4H-1,2,4-triazol-3-y)propane-2-sulfonamide]",90 nM
3,"COc1cccc(-c2nnc(NS(=O)(=O)[C@@H](C)[C@H](OC)c3ncc(Cl)cn3)n2[C@H](C)c2cccnc2)n1 (single isomer, unassigned) [Example 351.0, (1R,2S)-1-(5-chloropyrimidin-2-yl)-1-methoxy-N-(5-(6-methoxypyridin-2-yl)-4-((R)-1-(pyridin-3-yl)ethyl)-4H-1,2,4-triazol-3-yl)propane-2-sulfonamide or (1R,2S)-1-(5-chloropyrimidin-2-yl)-1-methoxy-N-(5-(6-methoxypyridin-2-yl)-4-((S)-1-(pyridin-3-yl)ethyl)-4H-1,2,4-triazol-3-yl)propane-2-sulfonamide]",0.36 nM
4,"COc1cccc(-c2nnc(NS(=O)(=O)[C@@H](C)[C@@H](OC(C)C)c3ncc(C)cn3)n2[C@H](c2conc2C)C2CC2)n1 (single isomer, unassigned) [Example 230.0, (1S,2S)-N-(4-((S)-cyclopropyl(3-methyl-1,2-oxazol-4-yl)methyl)-5-(6-methoxy-2-pyridinyl)-4H-1,2,4-triazol-3-yl)-1-(5-methyl-2-pyrimidinyl)-1-(2-propanyloxy)-2-propanesulfonamide or (1S,2S)-N-(4-((R)-cyclopropyl(3-methyl-1,2-oxazol-4-yl)methyl)-5-(6-methoxy-2-pyridinyl)-4H-1,2,4-triazol-3-yl)-1-(5-methyl-2-pyrimidinyl)-1-(2-propanyloxy)-2-propanesulfonamide]",0.5 nM
5,"CCc1cc(Cn2c(NS(=O)(=O)[C@@H](C)[C@@H](OC(C)C)c3ncc(C)cn3)nnc2-c2cccc(OC)n2)on1 [Example 294.0, (1S,2S)-N-(4-((3-ethylisoxazol-5-yl)methyl)-5-(6-methoxypyridin-2-yl)-4H-1,2,4-triazol-3-yl)-1-isopropoxy-1-(5-methylpyrimidin-2-yl)propane-2-sulfonamide]",5.4 nM
6,"CO[C@H](c1ncc(Cl)cn1)[C@H](C)S(=O)(=O)Nc1nnc(-c2cncc(C)c2)n1C[C@H]1CCCCO1 (mixture of isomers) [Example 299.0, (1R,2S)-1-(5-chloropyrimidin-2-yl)-1-methoxy-N-(5-(5-methylpyridin-3-yl)-4-(((R)-tetrahydro-2H-pyran-2-yl)methyl)-4H-1,2,4-triazol-3-yl)propane-2-sulfonamide and (1R,2S)-1-(5-chloropyrimidin-2-yl)-1-methoxy-N-(5-(5-methylpyridin-3-yl)-4-(((S)-tetrahydro-2H-pyran-2-yl)methyl)-4H-1,2,4-triazol-3-yl)propane-2-sulfonamide]",120 nM
7,"COc1cccc(-c2nnc(NS(=O)(=O)[C@@H](C)[C@H](C)c3ncc(Cl)cn3)n2CC2COC2)n1 [Example 2.0, (2S,3R)-3-(5-chloro-2-pyrimidinyl)-N-(5-(6-methoxy-2-pyridinyl)-4-(3-oxetanylmethyl)-4H-1,2,4-triazol-3-yl)-2-butanesulfonamide]",> 4200 nM
8,"COc1cccc(-c2nnc(NS(=O)(=O)[C@@H](C)[C@H](OC)c3ncc(Cl)cn3)n2CC[S@+](C)[O-])n1 (single isomer, unassigned) [Example 95.0]",26 nM
9,COCC(COC)n1c(NS(=O)(=O)[C@@H](C)[C@H](C)c2cnc(C)cn2)nnc1-c1cccc(OC)n1 [Example 102.0],20 nM
10,"COc1cccc(-c2nnc(NS(=O)(=O)[C@@H](C)[C@H](OC)c3ncc(Cl)cn3)n2C[C@@H]2CCC[C@H](C)O2)n1 (single isomer, unassigned) [Example 307.0]",8.8 nM
11,"COc1cccc(-c2nnc(NS(=O)(=O)[C@@H](C)[C@H](OC)c3ncc(Cl)cn3)n2C23CC(C2)C3)n1 [Example 263.0, (1R,2S)—N-(4-(Bicyclo[1.1.1]pentan-1-yl)-5-(6-methoxypyridin-2-yl)-4H-1,2,4-triazol-3-yl)-1-(5-chloropyrimidin-2-yl)-1-methoxypropane-2-sulfonamide]",49 nM
12,"COc1cccc(-c2nnc(NS(=O)(=O)[C@@H](C)[C@@H](OC(C)C)c3ncc(C)cn3)n2C[C@H]2CCCCO2)n1 (single isomer, unassigned) [Example 301.0, (1S,2S)-1-isopropoxy-N-(5-(6-methoxypyridin-2-yl)-4-(((R)-tetrahydro-2H-pyran-2-yl)methyl)-4H-1,2,4-triazol-3-yl)-1-(5-methylpyrimidin-2-yl)propane-2-sulfonamide or (1S,2S)-1-isopropoxy-N-(5-(6-methoxypyridin-2-yl)-4-(((S)-tetrahydro-2H-pyran-2-yl)methyl)-4H-1,2,4-triazol-3-yl)-1-(5-methylpyrimidin-2-yl)propane-2-sulfonamide]",4.4 nM
13,"COc1cccc(-c2nnc(NS(=O)(=O)[C@@H](C)[C@H](OC)c3cnc(C)cn3)n2Cc2cc(C)no2)n1 [Example 191.0, (1R,2S)-1-methoxy-N-(5-(6-methoxypyridin-2-yl)-4-((3-methylisoxazol-5-yl)methyl)-4H-1,2,4-triazol-3-yl)-1-(5-methylpyrazin-2-yl)propane-2-sulfonamide]",390 nM
14,"COc1cccc(-c2nnc(NS(=O)(=O)[C@@H](C)[C@H](OC)c3ncc(Cl)cn3)n2[C@@H](C)c2ncnn2C)n1 (single isomer, unassigned) [Example 249.0, (1R,2S)-1-(5-chloro-2-pyrimidinyl)-1-methoxy-N-(5-(6-methoxy-2-pyridinyl)-4-((1R)-1-(1-methyl-1H-1,2,4-triazol-5-yl)ethyl)-4H-1,2,4-triazol-3-yl)-2-propanesulfonamide or (1R,2S)-1-(5-chloro-2-pyrimidinyl)-1-methoxy-N-(5-(6-methoxy-2-pyridinyl)-4-((1S)-1-(1-methyl-1H-1,2,4-triazol-5-yl)ethyl)-4H-1,2,4-triazol-3-yl)-2-propanesulfonamide]",3 nM
15,"COc1cccc(-c2nnc(NS(=O)(=O)[C@@H](C)[C@H](OC)c3ncc(Cl)cn3)n2[C@H](C)c2cscn2)n1 (single isomer, unassigned) [Example 344.0, (1R,2S)-1-(5-chloropyrimidin-2-yl)-1-methoxy-N-(5-(6-methoxypyridin-2-yl)-4-((S)-1-(thiazol-4-yl)ethyl)-4H-1,2,4-triazol-3-yl)propane-2-sulfonamide or (1R,2S)-1-(5-chloropyrimidin-2-yl)-1-methoxy-N-(5-(6-methoxypyridin-2-yl)-4-((R)-1-(thiazol-4-yl)ethyl)-4H-1,2,4-triazol-3-yl)propane-2-sulfonamide]",7.1 nM
16,"CC[C@@H](c1c(C)noc1C)n1c(NS(=O)(=O)[C@@H](C)[C@H](OC)c2ncc(Cl)cn2)nnc1-c1cccc(OC)n1 (single isomer, unassigned) [Example 219.0, (1R,2S)-1-(5-chloro-2-pyrimidinyl)-N-(4-((1R)-1-(3,5-dimethyl-1,2-oxazol-4-yl)propyl)-5-(6-methoxy-2-pyridinyl)-4H-1,2,4-triazol-3-yl)-1-methoxy-2-propanesulfonamide or (1R,2S)-1-(5-chloro-2-pyrimidinyl)-N-(4-((1S)-1-(3,5-dimethyl-1,2-oxazol-4-yl)propyl)-5-(6-methoxy-2-pyridinyl)-4H-1,2,4-triazol-3-yl)-1-methoxy-2-propanesulfonamide]",1.8 nM
17,"CC[C@H]([C@@H]1CCCCO1)n1c(NS(=O)(=O)[C@@H](C)[C@H](OC)c2ncc(C)cn2)nnc1-c1cccc(OC)n1 (single isomer, unassigned) [Example 330.0]",0.23 nM
18,"COc1cccc(-c2nnc(NS(=O)(=O)[C@@H](C)[C@H](OC)c3ncc(Cl)cn3)n2[C@H](C)c2cncs2)n1 (single isomer, unassigned) [Example 347.0, (1R,2S)-1-(5-chloropyrimidin-2-yl)-1-methoxy-N-(5-(6-methoxypyridin-2-yl)-4-((R)-1-(thiazol-5-yl)ethyl)-4H-1,2,4-triazol-3-yl)propane-2-sulfonamide or (1R,2S)-1-(5-chloropyrimidin-2-yl)-1-methoxy-N-(5-(6-methoxypyridin-2-yl)-4-((S)-1-(thiazol-5-yl)ethyl)-4H-1,2,4-triazol-3-yl)propane-2-sulfonamide]",0.48 nM
19,COC[C@H](C)n1c(NS(=O)(=O)[C@@H](C)[C@H](OC)c2ncc(Cl)cn2)nnc1-c1cccc(OC)n1 [Example 48.0],1.3 nM
20,"COc1cccc(-c2nnc(NS(=O)(=O)[C@@H](C)[C@H](OC)c3ncc(Cl)cn3)n2[C@@H]2C[C@@H]2F)n1 [Example 169.0, (1R,2S)-1-(5-Chloropyrimidin-2-yl)-N-(4-((1R,2S)-2-fluorocyclopropyl)-5-(6-methoxypyridin-2-yl)-4H-1,2,4-triazol-3-yl)-1-methoxypropane-2-sulfonamide]",20 nM
